Article PMC1892040 (PLoS Medicine, 2007)
Where two headings read alike, the source gives them in different places.

Columns and labels:
[1] = target: T1, S. mansoni TGR (Schistosoma mansoni, UniProt Q962Y6); format: biochemical; set-up: The entire TGR ORF plus the SECIS element was subcloned into pET-24a; made in house; host or cells: Escherichia coli BL21(DE3) with pSUABC; settings: read-out: IC50 S. mansoni TGR, DTNB (TrxR activity)
T1 sequence (Q962Y6 1-598): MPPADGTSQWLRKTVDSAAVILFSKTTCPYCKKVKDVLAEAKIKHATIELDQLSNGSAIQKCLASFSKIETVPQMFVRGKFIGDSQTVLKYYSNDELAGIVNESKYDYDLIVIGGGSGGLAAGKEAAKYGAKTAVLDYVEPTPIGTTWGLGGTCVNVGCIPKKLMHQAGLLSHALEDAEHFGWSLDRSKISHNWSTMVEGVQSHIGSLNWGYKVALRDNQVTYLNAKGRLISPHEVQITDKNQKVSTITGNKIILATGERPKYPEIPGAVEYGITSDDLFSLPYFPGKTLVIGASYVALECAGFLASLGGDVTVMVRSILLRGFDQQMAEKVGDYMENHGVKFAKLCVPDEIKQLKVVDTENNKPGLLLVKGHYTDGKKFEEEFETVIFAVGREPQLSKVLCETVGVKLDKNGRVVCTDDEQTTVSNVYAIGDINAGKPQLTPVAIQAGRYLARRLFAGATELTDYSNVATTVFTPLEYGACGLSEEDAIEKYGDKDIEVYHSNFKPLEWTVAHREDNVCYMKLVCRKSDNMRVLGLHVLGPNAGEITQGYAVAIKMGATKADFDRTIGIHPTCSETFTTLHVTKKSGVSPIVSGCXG
Description: (§1) Assays were performed at 25 °C in 0.1 M potassium phosphate (pH 7.4), 10 mM EDTA using 100 μM NADPH unless otherwise stated.
(§2) Initial inhibitor screens were conducted in 200 μl volumes in 96 well plates with 50 μM inhibitor, 100 μM NADPH, and 5 nM TGR in 0.1 M potassium phosphate (pH 7.4), 10 mM EDTA with a preincubation step of 15 min. […] All assays were done in triplicate.

[2] = target: T1, S. mansoni TGR; format: biochemical; set-up: The entire TGR ORF plus the SECIS element was subcloned into pET-24a; made in house; host or cells: Escherichia coli BL21(DE3) with pSUABC; settings: read-out: IC50 S. mansoni TGR, GSSG (GR activity)
Description: as §1, §2

[3] = target: T1, S. mansoni TGR
Description: as §1, §2

[4] = system: myeloma cell line SP2/0; assay: Cytotoxicity assay (sulforhodamine B); format: cell-based; settings: adult worms 24 h; myeloma cells 24 h and 5 d
Description: Cytotoxicity assays were performed using sulforhodamine B to determine cellular protein content as described. Briefly, myeloma cell line SP2/0 was cultured in 96-well microtiter plates containing 0.2 ml of RPMI-1640 per well at a cell density of 1,000 per well at 37 °C in 5% CO2. Cells were treated with drug concentrations (or drug carrier alone) and exposure times as indicated. After treatment, cells were fixed with 10% TCA at 4 °C for 1 h. Fixed cells were rinsed to remove fixative and then stained in 0.4% (w/v) sulforhodamine B (Sigma) in 1% acetic acid for 30 min. After washing with 1% acetic acid and dye extraction in 10 mM Tris (pH 10.5), plates were read at A564nm. The A564nm of drug-treated cells was compared to carrier-only-treated cells. The treatments were done in triplicate and the experiments repeated three times.

[5] = target: phosphofructokinase (PFK); set-up: method as in PMID 8898332; settings: cited from earlier work
[6] = target: T1, S. mansoni TGR; assay: biochemical; format: biochemical; set-up: The entire TGR ORF plus the SECIS element was subcloned into pET-24a; made in house; host or cells: Escherichia coli BL21(DE3) with pSUABC; settings: for Type of inhibition of TGR: reciprocal plots, TrxR and GR activities
Description: The inhibitory constants (K i) were determined using Equation 1 [21]: [drawing 1] where v maxapp is the apparent v max at different inhibitor concentrations and corresponds to the value of the 1/v intercept on the reciprocal plot.
The apparent Vmax for various concentrations of inhibitors were used to calculate K i values. Concentrations of PAT are no drug (♦), 10 nM, 30 nM (▴), and 75 nM (×); and of OPZ are no drug (♦), 50 μM, 75 μM (▴), and 100 μM (×).

[7] = target: T2, Human GR (Homo sapiens, UniProt P00390); assay: Inhibition of human GR (GSSG); format: biochemical; settings: 12.5 μM compound, 200 μM disulfide substrate, preincubation 60 min at 37 °C; read-out: Percent inhibition of Human GR
T2 sequence (P00390 44-522): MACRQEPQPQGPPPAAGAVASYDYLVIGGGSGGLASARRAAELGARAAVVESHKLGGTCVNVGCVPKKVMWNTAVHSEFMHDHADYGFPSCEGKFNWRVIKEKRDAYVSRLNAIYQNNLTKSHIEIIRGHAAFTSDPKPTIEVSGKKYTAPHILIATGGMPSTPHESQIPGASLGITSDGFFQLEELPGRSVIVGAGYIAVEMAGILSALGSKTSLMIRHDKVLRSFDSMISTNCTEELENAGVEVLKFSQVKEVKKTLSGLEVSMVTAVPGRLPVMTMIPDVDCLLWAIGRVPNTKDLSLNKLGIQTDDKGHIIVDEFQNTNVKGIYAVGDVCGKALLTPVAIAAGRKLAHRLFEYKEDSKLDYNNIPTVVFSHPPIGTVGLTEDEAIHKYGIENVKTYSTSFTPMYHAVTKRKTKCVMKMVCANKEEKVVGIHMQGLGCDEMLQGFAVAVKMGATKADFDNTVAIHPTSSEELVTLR
Description: (§3) In order to assess the potential for inhibition of TGR we screened several structurally diverse series of compounds (Figure S1) known to act as inhibitors of disulfide reductases from various organisms.

[8] = target: T3, Human TrxR (Homo sapiens, UniProt Q16881); assay: Inhibition of human TrxR (DTNB/Trx); format: biochemical; settings: 12.5 μM compound, 200 μM disulfide substrate, preincubation 60 min at 37 °C; read-out: Percent inhibition of Human TrxR
T3 sequence (Q16881 1-499 isoform Q16881-5): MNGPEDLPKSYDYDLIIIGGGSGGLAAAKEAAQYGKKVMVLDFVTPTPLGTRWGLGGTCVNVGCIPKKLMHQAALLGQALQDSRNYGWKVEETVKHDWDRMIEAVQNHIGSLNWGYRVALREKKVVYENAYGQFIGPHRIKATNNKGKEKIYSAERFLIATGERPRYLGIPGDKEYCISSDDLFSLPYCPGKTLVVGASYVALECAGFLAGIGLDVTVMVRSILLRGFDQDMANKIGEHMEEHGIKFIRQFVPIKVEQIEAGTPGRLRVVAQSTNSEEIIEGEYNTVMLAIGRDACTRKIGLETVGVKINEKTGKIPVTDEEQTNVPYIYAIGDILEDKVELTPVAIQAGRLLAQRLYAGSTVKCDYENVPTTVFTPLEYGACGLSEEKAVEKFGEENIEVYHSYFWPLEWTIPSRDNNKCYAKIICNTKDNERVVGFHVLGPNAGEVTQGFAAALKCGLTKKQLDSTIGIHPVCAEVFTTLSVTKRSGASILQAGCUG
Description: as §3

[9] = target: T1, S. mansoni TGR; settings: rough estimation at low OPZ concentrations
Description: OPZ concentrations were 0 (•), 25 (□), 50 (♦), 75 (Δ), and 100 (▴) μM. All incubation mixtures included 2% final DMSO. […] The error bars in (B) and (D) represent ± the standard errors of the k obs values estimated separately at each inhibitor concentration, as obtained from nonlinear regression analysis.

[10] = target: T2, Human GR; settings: read-out: Apparent Km, Human GR; cited from earlier work
[11] = system: Human TGR; settings: read-out: Apparent Km, Human TGR; cited from earlier work
[12] = target: T1, S. mansoni TGR; assay: Kinetic analysis of recombinant S. mansoni TGR with substrates
Description: Kinetic parameters were determined using Lineweaver–Burk plots using KaleidaGraph 4 (Synergy Software, http://www.synergy.com) least squares best fit of data and varying concentrations of one substrate while maintaining the concentration of other substrates. […] All assays were done in triplicate.

[13] = system: Human TrxR1; settings: read-out: Apparent Km, Human TrxR1; cited from earlier work
[14] = substrate of TGR (20 nM), 25 °C, pH 7.4, 100 μM NADPH, ± SD

## O.O.O.O=C([O-])[C@H]([O-])[C@@H]([O-])C(=O)[O-].O=C([O-])[C@H]([O-])[C@@H]([O-])C(=O)[O-].[K+].[K+].[Sb+3].[Sb+3] [PAT, potassium antimonyl tartrate]
[1]
  IC50: 51 nM
[2]
  IC50: 37 nM
[3]
  Activity of Enzyme (% of Uninhibited Enzyme): 0%
[4]
  Differential in toxicity between adult worms and mammalian cells: similarly large differential in toxicity
[5]
  IC50: 16000 nM
[6]; DTNB as substrate, read-out: Ki (± standard deviation), TrxR activity of TGR
  Ki: 4.86 ± 0.46 nM
[6]; GSSG as substrate, read-out: Ki (± standard deviation), GR activity of TGR
  Ki: 7.22 ± 4.96 nM
[6]
  Type of inhibition of TGR: noncompetitive

## Cc1c(-c2cnccn2)ssc1=S [OPZ, oltipraz]
[7]
  inhibition at 12.5 µM: 0%
[3]
  activity: 13%
[8]
  inhibition at 12.5 µM: 37%
[6]; Ki (± standard deviation), GR activity of TGR, GSSG as substrate
  Ki: 33800 ± 6000 nM
[6]; Ki (± standard deviation), TrxR activity of TGR, DTNB as substrate
  Ki: 18100 ± 1100 nM
[6]
  Type of inhibition of TGR: noncompetitive
[9]
  k i, first-order rate constant for irreversible inactivation, GR assay: ~0.04 min⁻¹
  k i, first-order rate constant for irreversible inactivation, TrxR assay: ~0.06 min⁻¹

## NC(=O)C1=CN([C@@H]2O[C@H](COP(=O)(O)OP(=O)(O)OC[C@H]3O[C@@H](n4cnc5c(N)ncnc54)[C@H](OP(=O)(O)O)[C@@H]3O)[C@@H](O)[C@H]2O)C=CC1 [NADPH]
[10]
  Km: 8.5 µM
[11]
  Km: 10.7 µM
[12]; read-out: Apparent Km, S. mansoni TGR
  Km: 13.7 µM
[12]; substrate of TGR (20 nM), 25 °C, pH 7.4, 100 μM NADPH
  kcat: 20.1 s⁻¹
[12]; [14]
  Km: 13.7 ± 2.4 µM
  Vmax: 25.1 ± 1.8 µM/min
[13]
  Km: 19.6 µM
